Experimental data reported in article PMC6272185 (Molecules, 2015).
Values after ≈ are worked out from the molar mass of the structure shown. Read-outs that look alike come from different tables or passages of the source.

Experiments:
[1] = system: NO production by LPS-stimulated RAW 264.7 macrophages; experiment: Inhibition of NO production by LPS-stimulated macrophages (Griess); format: cell-based, murine; conditions: Mus musculus, RAW264.7, 24 h, LPS (1 µg/mL)-stimulated RAW 264.7, 24 h; mean ± SD, n = 3; read-out: IC50 NO
[2] = system: TNF-α production by LPS-stimulated RAW 264.7 macrophages; experiment: Inhibition of TNF-α production by LPS-stimulated macrophages (ELISA); format: cell-based, murine; conditions: for IC50: Mus musculus, RAW264.7, LPS (1 µg/mL)-stimulated RAW 264.7, 24 h, mean ± SD, n = 3, read-out: IC50 TNF-α
[3] = Macrophage cytotoxicity, LDH release assay; format: cell-based, murine; conditions: mouse, RAW 264.7 macrophages stimulated with LPS; LPS-stimulated RAW 264.7, LDH release; mean ± SD, n = 3
M. bovis BCG = experiment: microbe, parasite or virus in culture; format: cell-based, Mycobacterium bovis BCG; conditions: for MIC50 / MIC90: Mycobacterium tuberculosis variant bovis BCG, BCG, 168 h; for MIC50: read-out: MIC50 M. bovis BCG; for MIC90: read-out: MIC90 M. bovis BCG
[4] = system: IL-1β production by LPS-stimulated RAW 264.7 macrophages; experiment: Inhibition of IL-1β production by LPS-stimulated macrophages (ELISA); format: cell-based, murine; conditions: for inhibition of IL-1β: LPS-stimulated RAW 264.7; for IC50: Mus musculus, RAW264.7, 24 h, read-out: IC50 IL-1β
Procedure: (§1) Murine RAW 264.7 macrophage cell line (American Type Culture Collection, Manassas, VA, USA), was cultured in Dulbecco’s modified Eagle’s medium (DMEM-F12) supplemented with 10% Fetal Bovine Serum (FBS) and gentamicin (50 µg/mL) in 5% CO2 atmosphere at 37 °C. For experiments, the cells were seeded in 96-well plates (1 × 10^5 cells/well) and incubated for 24 h at 37 °C. For macrophage stimulation, the cell cultures were treated with LPS (1 µg/mL) and incubated for additional 24 h in the presence or absence of the chalcone samples (samples 1–41) that were used at concentrations of 100, 20, 4 and 0.8 µg/mL. In some experiments, a nitric oxide (NO) inhibitor, L-NMMA (20 μg/mL), was used as a positive control of NO inhibition, and a non-steroidal anti-inflammatory drug indomethacin, known to inhibit production of prostaglandins, was used as a positive control of PGE2 inhibition.
(§2) The frozen culture supernatants samples were thawed and immediately analyzed using commercially available enzyme-linked immunosorbent assay (ELISA) kits to measure TNF-α, IL-1β (BD Biosciences) and PGE2 (R&D Systems, Minneapolis, MN, USA), according to the manufacturer’s instructions. Standard curves for each mediator were generated using reference cytokine concentrations supplied by the manufacturer. Nitric oxide (NO) generation was assessed by the Griess method to measure nitrites, which are stable breakdown NO products.

[5] = system: PGE2 production by LPS-stimulated RAW 264.7 macrophages; experiment: Inhibition of PGE2 production by LPS-stimulated macrophages (ELISA); format: cell-based, murine; conditions: Mus musculus, RAW264.7, 24 h, read-out: IC50 PGE2
Procedure: as §1, §2

[6] = system: iNOS expression in RAW 264.7 macrophages; experiment: iNOS expression by western blot in LPS-stimulated macrophages; format: cell-based, murine; conditions: 20 µg/mL, LPS 1 µg/mL, 24 h
Procedure: (§3) RAW 264.7 macrophages were plated in Petri dishes (2 × 10^7 cells·mL^−1) and incubated for 24 h at 37 °C in 5% CO2 atmosphere. […] The resulted cellular monolayers were washed with PBS 1×, scraped and resuspended in PBS 1×, transferred and centrifuged to obtain cell pellets. The cells were lysed in buffer (10% SDS, 20% glycerol, 5% 2-mercaptoethanol, 2% bromophenol blue and 1 M Tris HCl, pH 6.8, containing protease inhibitors). Protein concentrations were estimated by Bradford method. For western blot analysis, cellular extract samples (60 µg) were submitted to 10% SDS–polyacrylamide gel electrophoresis under […] conditions and transferred to nitrocellulose membranes (Amersham Pharmacia Biotech, Uppsala, Sweden). After blocking with PBS-T (0.5% Tween-20) containing 2.5% (w/v) bovine serum albumin, the membranes were incubated with antibodies against iNOS (1:1000) and COX-2 (1:500) for 1 h at room temperature. After incubation period, the membranes were washed followed by treatment with horseradish peroxidase-conjugated secondary antibody. The resulting membranes were developed using diaminobenzidine/H2O2 as a substrate for peroxidase. In all electrophoresis experiments, a protein standard ladder (Full Range Rainbow-GE Healthcare, Piscataway, NJ, USA) was used to estimate proteins molecular size. Protein bands densitometric analysis was performed using ImageJ software for Windows (NIH, Bethesda, MD, USA). The value for stimulated condition (LPS- treated cells) was set as 1 and other conditions were recalculated correspondingly to allow ratio comparisons.

[7] = system: COX-2 expression in RAW 264.7 macrophages; experiment: COX-2 expression by western blot in LPS-stimulated macrophages; format: cell-based, murine; conditions: 20 µg/mL, LPS 1 µg/mL, 24 h
Procedure: as §3

M. tuberculosis H37Rv = experiment: microbe, parasite or virus in culture; format: cell-based, Mycobacterium tuberculosis; conditions: for MIC90 / MIC50: Mycobacterium tuberculosis
M. tuberculosis M299 = experiment: microbe, parasite or virus in culture; format: cell-based, Mycobacterium tuberculosis; conditions: Mycobacterium tuberculosis, M299, 120 h
[8] = system: M. tuberculosis strain H37Rv in RAW 264.7 macrophages; experiment: Intracellular growth of M. tuberculosis H37Rv in infected macrophages (CFU); format: cell-based, Mycobacterium tuberculosis; conditions: infected RAW 264.7, MOI 1:1, 4 days, Figure 3C; for MIC50: Mycobacterium tuberculosis, H37RV, 96 h
Procedure: (§4) RAW 264.7 macrophages were plated (1 × 10^5 cells/well) in antibiotic-free DMEM-F12 medium supplemented with 10% fetal bovine serum and incubated for 24 h. Prior to infection, mycobacterial suspensions were sonicated for 1 minute to disperse clumps and optical densities were adjusted to 0.1. The macrophage cultures were infected at a MOI of 1:1 (macrophage: bacterium). Phagocytosis was allowed to progress for 3 h. After 3 h, extracellular mycobacteria were removed by washing with PBS 1X and the infected cell monolayers were treated for 4 days with chalcone samples or rifampicin. Macrophage viability was monitored by LDH assay and was over 80% in all experiments. On day 4 after infection, cells were lysed cells with 1% saponin to release intracellular bacteria. Lysate aliquots were diluted 10-fold in PBS, plated in triplicates on 7H10 agar plates and incubated at 37 °C. After 21 days, total CFU were determined.

[9] = system: RAW 264.7 macrophages infected with M. tuberculosis H37Rv; experiment: Toxicity for infected macrophages, LDH assay; format: cell-based, murine; conditions: Mus musculus, RAW264.7, 96 h; infected RAW 264.7, 4 days treatment; Figure 3D
Procedure: Cytotoxic effects of chalcone samples on RAW 264.7 cell viability in cultures stimulated with LPS were determined using the LDH (lactate dehydrogenase) release assay as previously described. Cytoplasmic enzyme LDH release into cell culture supernatants was detected using a commercial LDH kit (Doles, GO, Brazil). Cell death was expressed as percentage of LDH release, which was calculated using the following formula: percentage of LDH release = 100 × (test LDH release − spontaneous release)/(maximum release − spontaneous release). The maximum release was determined following dissolution of cell monolayers using 1% (vol/vol) Triton X-100. The spontaneous release was determined in supernatants from cultures incubated in the presence of LPS and DMSO, used as a solvent for chalcone samples.
as §4

[10] = H37RV, 120 h, read-out: MIC50 M. tuberculosis H37Rv
[11] = Table 5, same values as M. tuberculosis H37Rv in Table 3, read-out: MIC50

| Compound | IC50 [2] [µM] | IC50 [3] [µM] | MIC50 (M. bovis BCG) [µM] | MIC90 (M. bovis BCG) [µM] | inhibition of IL-1β [4] | IC50 [4] [µM] | IC50 [5] [µM] | inhibition of iNOS expression [6] | abrogation of COX-2 expression [7] | MIC90 (M. tuberculosis H37Rv; H37RV, 120 h) [µM] | MIC50 (M. tuberculosis H37Rv; [10]) [µM] | MIC50 (M. tuberculosis H37Rv; [11]) [µM] | MIC50 (M. tuberculosis M299) [µM] | MIC90 (M. tuberculosis M299) [µM] | MIC50 [8] [µM] | IC50 [9] [µM] | other results |
| --- | --- | --- | --- | --- | --- | --- | --- | --- | --- | --- | --- | --- | --- | --- | --- | --- | --- |
| O=C(/C=C/c1ccc(Cl)cc1)c1ccccc1 [Chalcone 3] | 60.5 ± 4.7 | 400 ± 4.9 | 20.7 ± 6.4 (≈ 5.02 µg/mL) | 170 ± 5.4 (≈ 41.2 µg/mL) | potent inhibitors | 46.6 ± 4.6 | 19.9 ± 2.6 | almost completely inhibit | most potent in abrogation | 372.7 ± 3.6 (≈ 90.5 µg/mL) | 13 ± 3.3 (≈ 3.16 µg/mL) | 13 ± 3.3 (≈ 3.16 µg/mL) | 18.4 ± 3.9 (≈ 4.46 µg/mL) | 373.9 ± 1.4 (≈ 90.7 µg/mL) | 12.3 ± 1 (≈ 2.99 µg/mL) | 307 ± 5.1 | IC50 [1]: 31.9 ± 4.6 µM |
| O=C(/C=C/c1ccc2c(c1)OCO2)c1ccccc1 [Chalcone 5] | 48.1 ± 7.6 | > 396 | 14.5 ± 6.1 (≈ 3.66 µg/mL) | 75.3 ± 8.4 (≈ 19 µg/mL) | potent inhibitors | 57.9 ± 4.9 | 23.1 ± 2.4 | almost completely inhibit | most potent in abrogation | 303 ± 5.4 (≈ 76.5 µg/mL) | 12.7 ± 1.9 (≈ 3.2 µg/mL) | 12.7 ± 1.9 (≈ 3.2 µg/mL) | 11.7 ± 3.4 (≈ 2.95 µg/mL) | 289.6 ± 0.7 (≈ 73.1 µg/mL) | 3.8 ± 0.1 (≈ 0.959 µg/mL) | > 396 | inhibition of TNF-α ([2]; LPS-stimulated RAW 264.7): strongly inhibit; MIC90 M. bovis BCG (M. bovis BCG; culture, 7 days, MTT): 75.3 ± 8.4 µM (≈ 19 µg/mL); MIC90 M. tuberculosis H37Rv (M. tuberculosis H37Rv): 303.2 ± 5.4 µM (≈ 76.5 µg/mL); MIC50 intracellular M. tuberculosis H37Rv [8]: 3.8 ± 0.1 µM (≈ 0.959 µg/mL) |
